Among the data in US9957264B2 (Merck Sharp & Dohme Corp., priority 2013, dated 2018) are IC50 values, retold here.

Structures are written as SMILES.

The target of experiment [1] is JAK2 (recombinant purified GST-tagged catalytic domain) (Homo sapiens (Human), UniProt O60674). The experiment is described as follows: Jak Biochemical HTRF Assay (JAK2). To be noted: [ATP] 8.5 μM.
Experiment [2] has as its target JAK1 (recombinant purified GST-tagged catalytic domain) (Homo sapiens (Human), UniProt P23458). The experiment is described as follows: Jak Biochemical HTRF Assay (JAK1). To be noted: [ATP] 31.8 μM. The method, boiled down: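 Compounds in DMSO were pre-equilibrated with enzyme and biotinylated peptide, then ATP was added and the reaction proceeded 120 min at room temperature. EDTA-based stop buffer with detection reagents was added, and after 60 min the time-resolved FRET ratio was read. IC50s came from 4-parameter dose–response fits.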

Chain of JAK1 (recombinant purified GST-tagged catalytic domain) (P23458 875-1153): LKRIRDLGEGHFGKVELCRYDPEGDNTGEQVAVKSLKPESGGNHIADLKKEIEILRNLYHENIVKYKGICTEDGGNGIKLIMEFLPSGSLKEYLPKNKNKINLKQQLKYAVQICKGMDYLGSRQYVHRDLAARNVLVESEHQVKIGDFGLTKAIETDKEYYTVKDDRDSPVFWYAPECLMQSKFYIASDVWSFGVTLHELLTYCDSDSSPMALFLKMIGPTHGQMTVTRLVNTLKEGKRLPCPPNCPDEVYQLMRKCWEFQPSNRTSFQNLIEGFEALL
Chain of JAK2 (recombinant purified GST-tagged catalytic domain) (O60674 849-1124): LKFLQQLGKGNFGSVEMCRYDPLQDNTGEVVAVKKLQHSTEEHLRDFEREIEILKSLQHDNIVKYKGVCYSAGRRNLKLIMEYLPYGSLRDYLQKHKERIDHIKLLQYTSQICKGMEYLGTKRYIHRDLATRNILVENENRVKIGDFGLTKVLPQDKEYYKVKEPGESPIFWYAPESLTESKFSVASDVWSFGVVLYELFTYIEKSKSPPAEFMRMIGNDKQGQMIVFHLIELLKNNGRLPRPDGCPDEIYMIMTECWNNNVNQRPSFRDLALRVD

As for `CC(C)(C)OC(=O)[C@@H]1CC[C@@](CC#N)(n2nc(Nc3ccc4c(c3)CC(C)(C)C4(O)C(F)(F)F)c3c(=O)[nH]ccc32)CO1` (single isomer, unassigned) [Example 5-164, (2S,5S)-tert-butyl 5-(cyanomethyl)-5-(3-(((S or R)-1-hydroxy-2,2-dimethyl-1-(trifluoromethyl)-2,3-dihydro-1H-inden-5-yl)amino)-4-oxo-4,5-dihydro-1H-pyrazolo[4,3-c]pyridin-1-yl)tetrahydro-2H-pyran-2-carboxylate], the values for the IC50 in experiment [1] and in experiment [2] were 0.68 nM and 0.59 nM, respectively.

Consider `N#CC[C@@]1(n2nc(Nc3ccc([C@@]4(C(F)(F)F)CCCCN4)cc3)c3c(=O)[nH]ccc32)CCOC[C@@H]1F` (single isomer, unassigned) [Example 5-266, 2-((3R,4R or 3S,4S)-3-fluoro-4-(4-oxo-3-((4-((R or S)-2-(trifluoromethyl)piperidin-2-yl)phenyl)amino)-4,5-dihydro-1H-pyrazolo[4,3-c]pyridin-1-yl)tetrahydro-2H-pyran-4-yl)acetonitrile], for which the IC50 (commonly the concentration that inhibits the measured activity by half) was found to be 0.04 nM in experiment [1] and 0.05 nM in experiment [2].

For `Cc1cc(C)n(-c2ccc(Nc3nn([C@]4(CC#N)CC[C@@H](C(=O)OC(C)(C)C)OC4)c4cc[nH]c(=O)c34)cc2)n1` [Example 5-218, (2S,5S)-tert-butyl 5-(cyanomethyl)-5-(3-((4-(3,5-dimethyl-1H-pyrazol-1-yl)phenyl)amino)-4-oxo-4,5-dihydro-1H-pyrazolo[4,3-c]pyridin-1-yl)tetrahydro-2H-pyran-2-carboxylate], the IC50 in experiment [1] stood at 0.73 nM; in experiment [2], 0.16 nM.

Take `CC(C)(C)OC(=O)[C@@H]1CC[C@@](CC#N)(n2nc(Nc3ccc(C4(C(F)(F)F)CCCCN4)cc3)c3c(=O)[nH]ccc32)CO1` (single isomer, unassigned) [Example 5-286, (2S,5S)-tert-butyl 5-(cyanomethyl)-5-(4-oxo-3-((4-((S or R)-2-(trifluoromethyl)piperidin-2-yl)phenyl)amino)-4,5-dihydro-1H-pyrazolo[4,3-c]pyridin-1-yl)tetrahydro-2H-pyran-2-carboxylate]: the IC50 stood at 0.33 nM in experiment [1] and 0.24 nM in experiment [2].

On to `CCNc1nn(C2(CC#N)CN(C(=O)OC(C)(C)C)C2)c2cc[nH]c(=O)c12` [Example 2-4, tert-butyl 3-(cyanomethyl)-3-[3-(ethylamino)-4-oxo-4,5-dihydro-1H-pyrazolo [4,3-c]pyridin-1-yl] azetidine-1-carboxylate], for which the concentration for half-maximal inhibition (IC50) in experiment [1] was greater than 1480 nM; in experiment [2], 208 nM.

Take `CC(C)(C)OC(=O)[C@@H]1CC[C@@](CC#N)(n2nc(Nc3ccc4nc(N5CC6CCC(C5)O6)ccc4c3)c3c(=O)[nH]ccc32)CO1` [Example 5-229, (2S,5S)-tert-butyl 5-(3-((2-(8-oxa-3-azabicyclo[3.2.1]octan-3-yl)quinolin-6-yl)amino)-4-oxo-4,5-dihydro-1H-pyrazolo[4,3-c]pyridin-1-yl)-5-(cyanomethyl) tetrahydro-2H-pyran-2-carboxylate]: the 50% inhibitory concentration (IC50) came out at 1.39 nM in experiment [1] and 0.34 nM in experiment [2].

For the molecule `CC(C)NS(=O)(=O)c1ccc(Nc2nn(C3(CC#N)CCN(C(=O)OC(C)(C)C)CC3)c3cc[nH]c(=O)c23)cc1F` [Example 5-295, tert-butyl 4-(cyanomethyl)-4-(3-((3-fluoro-4-(N-isopropylsulfamoyl)phenyl)amino)-4-oxo-4,5-dihydro-1H-pyrazolo[4,3-c]pyridin-1-yl)piperidine-1-carboxylate], the values for the IC50 in experiment [1] and in experiment [2] were 0.6 nM and 0.42 nM, respectively.

`Cc1cc(Nc2nn([C@]3(CC#N)CCCOC3)c3cc[nH]c(=O)c23)ccc1C(=O)N1CCC(O)(C(F)(F)F)C1` (single isomer, unassigned) [Example 5-114, 2-((S)-3-(3-((4-((S or R)-3-hydroxy-3-(trifluoromethyl)pyrrolidine-1-carbonyl)-3-methylphenyl)amino)-4-oxo-4,5-dihydro-1H-pyrazolo[4,3-c]pyridin-1-yl)tetrahydro-2H-pyran-3-yl)acetonitrile]: the IC50 amounted to 1.31 nM in experiment [1] and 0.33 nM in experiment [2].
